Values after ≈ are worked out from the molar mass of the structure shown. “Also recorded” adds a separate entry of the source. Read-outs that look alike come from different tables or passages of the source.
Tests used:
[1] = test system: human lung airway epithelial cells (16HBE)
Procedure: (§1) Finally, toxicity of biaryl compounds was tested against human lung airway epithelial cells (16HBE), human dermal fibroblasts, and J774.A1 murine macrophages using an ALAMARBLUE® Cell Viability Assay. Biaryl compounds, C58, acetylated C58 (C58-2), C59, C59-2, C59Na, and C59Li were incubated with cells for 24 hours and an ALAMARBLUE® Cell Viability Assay was performed to determine cell viability relative to untreated controls (FIGS. 13A-13C). Cell viability curves were analyzed using non-linear curve fit to yield the inhibitory concentration at median cell survival (LD50) for all cell lines (Table 3).
(§2) Next, the toxicity of lead candidates was tested against human lung airway epithelial cells (16HBE) and human dermal fibroblasts (HDF) using an alamarBlue® Cell Viability Assay.

[2] = test system: human dermal fibroblasts (HDF)
Procedure: as §1, §2

[3] = test system: erythrocytes from sheep blood; experiment: Hemolytic activity
Procedure: Toxicity of biaryl compounds was tested against erythrocytes as well as eukaryotic epithelial, dermal, and macrophage cell lines in vitro.
Toxicity of lead antimicrobial candidates was tested against erythrocytes, as well as eukaryotic epithelial and dermal cell lines in vitro.

H2073 = experiment: Lung cancer cell survival, H2073; assay type: cell-based; conditions: 72 hour incubation, non-linear curve fit
Procedure: (§3) The IC50 values generated using a non-linear curve fit with lung cancer cell lines, A549, H460, H2122, and H2073 are listed in Table 10. Experiments were performed using C58, C58-2, C59, C59-2, C119, and acetylated C119 (C119-2). […] Additionally, these concentrations are clinically achievable for treatment of lung cancer and a detailed structure activity relationship experiments needs to be performed to identify promising anticancer candidates.

38 MRSA strains [4] = experiment: microbe, parasite or virus in culture; conditions: Staphylococcus aureus
MRSA SA LL06 = experiment: Growth curves (OD650, 18-h), MRSA SA LL06; assay type: cell-based, Staphylococcus aureus; conditions: SA LL06, 18-h
[5] = test system: eukaryotic cell lines tested; experiment: ALAMARBLUE Cell Viability Assay, LD50 quoted in text (cell line not given); conditions: 24 hours; cell line not named in the sentence (Table 3 not given)
Procedure: as §1

MRSA strain USA300 [6] = experiment: DiSC3(5) membrane permeabilization; assay type: cell-based, Staphylococcus aureus; conditions: 0.1 and 0.5 μg/mL
Procedure: Biaryl compounds and their analogues have been reported to be membrane active agents (Isnansetyo and Kamei, 2003 and Kamei et al., 2003). An experiment was performed to verify the membrane permeabilization activity of biaryl compound. C58 using a fluorescent dye, 3,3′-Dipropylthiacarbocyanine iodide (DiSC3(5)). The fluorescence signal from DiSC3(5) is in a quenched state when it interacts with the hydrophobic region of the cell membrane. Upon disruption of the membrane, DiSC3(5) is released and regains its fluorescent activity, which is measured as a fluorescence signal (RFU).

[7] = test system: MRSA strains SAD05 and 0632 in a biofilm; experiment: MBEC High-throughput biofilm assay; assay type: cell-based, Staphylococcus aureus; conditions: six-hour incubation, SAD05 and 0632
H2122 = experiment: Lung cancer cell survival, H2122; assay type: cell-based; conditions: 72 hour incubation, non-linear curve fit
Procedure: as §3

A549 = experiment: Lung cancer cell survival, A549; assay type: cell-based; conditions: 72 hour incubation, non-linear curve fit
Procedure: as §3

H460 = experiment: Lung cancer cell survival, H460; assay type: cell-based; conditions: 72 hour incubation, non-linear curve fit
Procedure: as §3

[8] = test system: R. equi strains 701+, 701−, 703, and 5331; experiment: MIC/MBC broth microdilution against R. equi; assay type: cell-based, Rhodococcus equi
[9] = test system: E. faecalis strains 49532 and 51575; experiment: MIC/MBC broth microdilution against E. faecalis; assay type: cell-based, Enterococcus faecalis
[10] = test system: 21 S. epidermidis strains; experiment: MIC90/MBC90 broth microdilution against 21 S. epidermidis strains; assay type: cell-based, Staphylococcus epidermidis
Description: We are currently in the process of evaluating the MICs and MBCs for 5-32.

[11] = test system: MRSA strains USA300, 0606, 0608, 0634, 0641, and 0646; experiment: MIC/MBC against six MRSA strains (variants of C58/C59, pH, DMSO); assay type: cell-based, Staphylococcus aureus
Procedure: Six MRSA strains, USA300, 0606, 0608, 0634, 0641, and 0646 were chosen based on their activity against biaryl compounds and vancomycin to determine structure-activity relationship of biaryl compounds. The effect of phenolic group on the activity of biaryl compounds was tested by modifying C59. First, the phenolic group was protected by acetylation to yield an acetylated C59 (C59-2) (FIG. 7B). Additional variants of C59, in the form of sodium and lithium salts were synthesized by incubation with sodium hydroxide and lithium hydroxide (FIGS. 7C and 7D). Antimicrobial activity of these deprotonated, water-soluble sodium (C59Na) and lithium (C59Li) salts, and acetylated derivative of C59 was tested against 6 MRSA strains and compared to the parent compound, C59 (FIGS. 8A-8D). Results from this comparative experiment indicate the contribution of phenolic group/phenoxide ion to the antimicrobial activity.
Further investigation into activity of these compounds under acidic pH conditions also points towards the role of phenolic group. An effective antimicrobial should be active under a wide range of pH conditions, including the physiological pH of 7.4. Localized pH in an infection is often lower than the physiological pH, and may be as low as 5.5 (Radovic-Moreno et al., 2012). Additionally, pH varies among organs (Radovic-Moreno et al., 2012). For example, pH in the bladder or on the skin is found to be between 4.5 and 8.0, or 4.0 and 5.5, respectively (Radovic-Moreno et al., 2012). […] The activity of all biaryl compounds is enhanced by at least four- to eight-fold with reduction in pH from 7.4 to 5.5.
Water soluble sodium and lithium salts of C59 (C59Na and C59Li) and their antimicrobial activity against six MRSA strains are reported above. A sodium salt of C58 (C58Na) was prepared and evaluated efficacy of this compound against these six MRSA strains. […] The poor activity of C58Na may be a result of poor stability of C58Na compared with C59Na and C59Li.

MRSA strain USA 300 = experiment: Growth curves (OD650, 18-h), MRSA USA 300; assay type: cell-based, Staphylococcus aureus; conditions: stationary phase USA 300, 18-h, compared with non-treated control
Procedure: The rate of bacterial growth in presence of antimicrobial candidates, C58, C59, C59Na, or 4-76, was performed using stationary phase MRSA, USA 300 and SA LL06, or S. epidermidis, M0881, and compared with SoC antimicrobial, vancomycin. In addition, these growth rates were compared with the kill kinetics described earlier (FIGS. 4 & 5). […] A reduction in bacterial growth rate, represented by a lower absorbance at OD650, can be observed with C59 and C59Na at concentrations as low as 0.125×MIC compared with non-treated control. […] However, in the kill kinetics experiments, vancomycin fails to eradicate stationary phase MRSA at concentrations up to 2×MIC. This anomaly can be explained by the different experimental conditions between the kill kinetics and growth curve experiments; bacterial samples are grown with constant shaking on an orbital shaker for a kill kinetics experiment but not for a growth curve experiment.
Finally, the antimicrobial efficacy of enantiomers of compound 4-76 were evaluated against log-phase MRSA strain USA 300, as described earlier.

[12] = test system: MRSA strains USA300 and SALL06; experiment: Kill kinetics with stationary-phase MRSA; assay type: cell-based, Staphylococcus aureus; conditions: stationary-phase USA300 and SALL06, up to 24 hours
[13] = test system: seven S. pyogenes strains; experiment: MIC/MBC against panel of S. pyogenes strains; assay type: cell-based, Streptococcus pyogenes; conditions: range over seven S. pyogenes strains
Procedure: The activity of compounds against Gram-positive pathogens, S. pyogenes and S. pneumoniae, identified through the preliminary screen (FIG. 15) was evaluated against a panel of these pathogens.

MRSA strain USA300 [14] = experiment: Kill kinetics with planktonic log-phase MRSA; assay type: cell-based, Staphylococcus aureus; conditions: log-phase USA300, 24 hours
38 MRSA strains [15] = conditions: MH broth
erythrocytes = conditions: 50 μg/mL, two hour incubation; cited from earlier work
[16] = Rhodococcus (subgen. Prescottella) equi, strain 701+
[17] = Rhodococcus (subgen. Prescottella) equi, strain 701−
[18] = Rhodococcus (subgen. Prescottella) equi, strain 703
[19] = Rhodococcus (subgen. Prescottella) equi, strain 5331
[20] = 24-h incubation, non-linear curve fit

Compound | onset of hemolysis ([3]; sheep, 1 h) | H2073 LD50 (H2073) | lowest concentration with reduction in bacterial growth rate (MRSA SA LL06) | LD50 (inhibitory concentration at median cell survival) [5] | H2122 LD50 (H2122) | A549 LD50 (A549) | H460 LD50 (H460) | MBC ([9]; strain 51575) | MIC ([9]; strain 51575) | 16HBE LD50 [1, 20] | MBC ([8]; strain 701+) | MIC ([8]; strain 701+) | MBC ([8]; strain 701−) | MIC ([8]; strain 701−) | MBC ([8]; strain 703) | MIC ([8]; strain 703) | MBC ([8]; strain 5331) | MIC ([8]; strain 5331) | MBC ([9]; strain 49532) | MIC ([9]; strain 49532) | other results
COc1c(C)cc(O)c(-c2c(O)ccc3ccccc23)c1C | – | – | – | – | – | – | – | – | – | – | – | – | – | – | – | – | – | – | – | – | melting point: 190 to 191 °C
C[C@@H]1[C@H](O)[C@@H](C)/C=C/C=C/C=C/C=C/C=C/C=C/C=C/[C@H](O[C@@H]2O[C@H](C)[C@@H](O)[C@H](N)[C@@H]2O)C[C@@H]2O[C@](O)(C[C@@H](O)C[C@@H](O)[C@H](O)CC[C@@H](O)C[C@@H](O)CC(=O)O[C@H]1C)C[C@H](O)[C@H]2C(=O)O [Amphotericin B, reference compound] | 2 µg/mL | – | – | – | – | – | – | – | – | – | – | – | – | – | – | – | – | – | – | – | 16HBE LD50 ([1]; human, 24 h): 12.6 µg/mL; Fibroblasts LD50 ([2]; human, 24 h): 2.2 µg/mL; concentration resulting in 100% hemolysis ([3]; sheep, 1 h): 8 µg/mL
Oc1c(Br)cc(Br)cc1-c1cc(Br)cc(Br)c1O [C58, bromophene] | > 64 µg/mL | 32 µM | 0.125 ×MIC | 60 µg/mL | 98 µM | 120 µM | 42 µM | 12 mg/L (≈ 23.9 µM) | 6 mg/L (≈ 12 µM) | – | – | – | – | – | – | – | – | – | – | – | MIC90 (38 MRSA strains [4]): 2 mg/L (≈ 3.99 µM); MBC (38 MRSA strains [4]; read-out: MBC90): 4 mg/L (≈ 7.97 µM); onset of hemolysis ([3]; sheep, 18 h): 16 to 20 µg/mL; membrane disruption (DiSC3(5) fluorescence) (MRSA strain USA300 [6]): positive membrane disruption; concentration that completely eradicates bacteria in a biofilm [7]: 16 µg/mL; MBC [8, 16]: 4 mg/L (≈ 7.97 µM); MIC [8, 16]: 1 mg/L (≈ 1.99 µM); MBC [8, 17]: 8 mg/L (≈ 15.9 µM); MIC [8, 17]: 1 mg/L (≈ 1.99 µM); MBC [8, 18]: 8 mg/L (≈ 15.9 µM); MIC [8, 18]: 0.5 mg/L (≈ 0.996 µM); MBC [8, 19]: 4 mg/L (≈ 7.97 µM); MIC [8, 19]: 1 mg/L (≈ 1.99 µM); MBC ([9]; Enterococcus faecalis): 12 mg/L (≈ 23.9 µM); MIC ([9]; Enterococcus faecalis): 6 mg/L (≈ 12 µM); MIC90 ([10]; Staphylococcus epidermidis): 2 mg/L (≈ 3.99 µM); MBC ([10]; Staphylococcus epidermidis, read-out: MBC90): 8 mg/L (≈ 15.9 µM)
[Na+].[Na+].[O-]c1c(Cl)cc(Cl)cc1-c1cc(Cl)cc(Cl)c1[O-] [C59Na] | – | – | – | – | – | – | – | 24 mg/L | 12 mg/L | 30 µg/mL | 16 mg/L | 2 mg/L | 32 mg/L | 8 mg/L | 8 mg/L | 1 mg/L | 8 mg/L | 2 mg/L | 24 mg/L | 12 mg/L | activity in the absence of DMSO versus with 2.5% DMSO [11]: at least comparable activity; antimicrobial activity (MIC and MBC) compared to the parent compound [11]: enhanced activity; also recorded: superior activity over C59; lowest concentration with reduction in bacterial growth rate (lower OD650) (MRSA strain USA 300): 0.125 ×MIC
Oc1c(Cl)cc(Cl)cc1-c1cc(Cl)cc(Cl)c1O [C59] | – | 43 µM | 0.125 ×MIC | 40 µg/mL | 91 µM | 123 µM | 37 µM | 16 mg/L (≈ 49.4 µM) | 8 mg/L (≈ 24.7 µM) | – | 4 mg/L (≈ 12.3 µM) | 2 mg/L (≈ 6.17 µM) | 16 mg/L (≈ 49.4 µM) | 2 mg/L (≈ 6.17 µM) | 8 mg/L (≈ 24.7 µM) | 2 mg/L (≈ 6.17 µM) | 4 mg/L (≈ 12.3 µM) | 2 mg/L (≈ 6.17 µM) | 16 mg/L (≈ 49.4 µM) | 8 mg/L (≈ 24.7 µM) | eradication of stationary-phase bacteria [12]: continues to eradicate bacteria; MBCs [13]: 12 to 24 µg/mL; MICs [13]: 2 to 12 µg/mL; concentration of complete killing (MRSA strain USA300 [14]): 8 µg/mL; dose response of bacterial eradication (MRSA strain USA300 [14]): dose-dependent manner; lowest concentration with reduction in bacterial burden (MRSA strain USA300 [14]; compared with untreated bacteria): 0.5 µg/mL; MBC90 (38 MRSA strains [15]): 6 mg/L (≈ 18.5 µM); MIC90 (38 MRSA strains [15]): 2 mg/L (≈ 6.17 µM); lowest concentration with reduction in bacterial growth rate (lower OD650) (MRSA strain USA 300): 0.125 ×MIC; MBC90 ([10]; 21 S. epidermidis strains): 12 mg/L (≈ 37 µM); MIC90 ([10]; 21 S. epidermidis strains): 4 mg/L (≈ 12.3 µM)
Gramicidin D [reference compound] | – | – | – | – | – | – | – | – | – | 20.5 µg/mL | – | – | – | – | – | – | – | – | – | – | Fibroblasts LD50 [2, 20]: 3.9 µg/mL; concentration resulting in 100% hemolysis ([3]; 1-h incubation): 48 µg/mL; onset of hemolysis ([3]; 1-h incubation): 2 µg/mL; hemolysis (erythrocytes): 60%
